Results on 2 compounds are retold here after ChEMBL document CHEMBL5725973, “Pyrrolidine orexin receptor antagonists” (2018).

One assay addresses T1, Orexin receptor type 2 (Homo sapiens, UniProt O43614).
T1 sequence (O43614 whole entry): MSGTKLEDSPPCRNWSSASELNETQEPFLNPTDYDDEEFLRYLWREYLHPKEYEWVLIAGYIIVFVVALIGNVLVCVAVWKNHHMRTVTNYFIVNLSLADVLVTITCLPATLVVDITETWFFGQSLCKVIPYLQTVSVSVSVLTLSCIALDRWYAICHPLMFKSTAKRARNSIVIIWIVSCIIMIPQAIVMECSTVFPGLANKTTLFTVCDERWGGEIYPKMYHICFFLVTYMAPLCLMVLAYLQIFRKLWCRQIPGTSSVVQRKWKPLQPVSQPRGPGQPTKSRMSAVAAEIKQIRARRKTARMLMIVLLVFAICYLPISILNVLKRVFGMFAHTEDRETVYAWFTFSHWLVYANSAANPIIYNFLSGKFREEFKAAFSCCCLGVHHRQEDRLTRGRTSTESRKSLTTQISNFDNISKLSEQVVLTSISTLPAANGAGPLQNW
The assay can be described thus: (§1) FLIPR Ca2+ Flux Assay: All reagents were from GIBCO-Invitrogen Corp. The seeded plates are incubated overnight at 37° C. and 5% CO2. Ala-6,12 human orexin-A as the agonist is prepared as a 1 mM stock solution in 1% bovine serum albumin (BSA) and diluted in assay buffer (HBSS containing 20 mM HEPES, 0.1% BSA and 2.5 mM probenecid, pH7.4) for use in the assay at a final concentration of 70pM. Test compounds are prepared as 10 mM stock solution in DMSO, then diluted in 384-well plates, first in DMSO, then assay buffer. On the day of the assay, cells are washed 3 times with 100 μl assay buffer and then incubated for 60 min (37° C., 5% CO2) in 60 μl assay buffer containing 1 μM Fluo-4AM ester, 0.02% pluronic acid, and 1% BSA. The dye loading solution is then aspirated and cells are washed 3 times with 100 μl assay buffer. 30 μl of that same buffer is left in each well. Within the Fluorescent Imaging Plate Reader (FLIPR, Molecular Devices), test compounds are added to the plate in a volume of 25 μl, incubated for 5 min and finally 25 μl of agonist is added. Fluorescence is measured for each well at 1 second intervals for 5 minutes and the height of each fluorescence peak is compared to the height of the fluorescence peak induced by 70 pM Ala-6,12 orexin-A with buffer in place of antagonist. For each antagonist, IC50 value (the concentration of compound needed to inhibit 50% of the agonist response) is determined. Alternatively, compound potency can be assessed by a radioligand binding assay (described in Bergman et. al. Bioorg. Med. Chem. Lett. 2008, 18, 1425-1430) in which the inhibition constant (Ki) is determined in membranes prepared from CHO cells expressing either the OX1 or OX2 receptor. The intrinsic orexin receptor antagonist activity of a compound which may be used in the present invention may be determined by these assays. (Calcium flux is commonly read through the fluorescence of an indicator in the cells.)

Assay [1] deals with T2, Orexin/Hypocretin receptor type 1 (Homo sapiens, UniProt O43613).
T2 sequence (O43613 whole entry): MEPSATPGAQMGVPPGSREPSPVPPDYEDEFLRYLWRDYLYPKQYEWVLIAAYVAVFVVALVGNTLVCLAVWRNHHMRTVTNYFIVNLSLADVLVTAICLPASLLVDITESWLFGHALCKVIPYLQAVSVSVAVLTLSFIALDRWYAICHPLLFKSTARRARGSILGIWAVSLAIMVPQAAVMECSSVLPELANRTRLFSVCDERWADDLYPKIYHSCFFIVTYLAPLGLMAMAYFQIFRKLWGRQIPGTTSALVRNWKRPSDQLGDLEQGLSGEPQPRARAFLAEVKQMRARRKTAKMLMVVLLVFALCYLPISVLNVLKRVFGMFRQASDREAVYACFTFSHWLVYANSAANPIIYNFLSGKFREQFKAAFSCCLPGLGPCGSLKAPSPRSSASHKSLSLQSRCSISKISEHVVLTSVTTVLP
The assay is described as §1.

`C[C@@H]1C[C@@H](Nc2cc(Br)ccn2)CN1C(=O)c1ccccc1-n1nccn1`: the IC50 at Orexin receptor type 2 was found to be 11.2 nM; in assay [1] it was 1150 nM.
The corresponding values for `C[C@@H]1C[C@@H](Nc2cc(OCC(F)F)ccn2)CN1C(=O)c1ccccc1C1(C#N)CCC1` are 58.3 nM and 4040 nM.

One may read the IC50 as the concentration that gives 50% inhibition.
